# Reference: a melting point compilation (Tetko et al.; mined from patent text by program, amines drawn as free bases though some values may be those of a salt)
row,Structure (SMILES),melting point
1,O=c1oc2ccc(O)cc2c(O)c1-c1ccccc1,261 to 263 °C
2,Cc1nc2c(n1-c1ccccc1)C(=O)c1ccccc1C2=O,242 °C
3,c1ccc2c(OCCNCCCc3c[nH]c4ccccc34)cccc2c1,119 to 120 °C
4,Cc1cc(-c2nnc3cc(C(C)(C)C)c(OCc4cn(C)nn4)nn23)no1,219 to 221 °C
5,CC(C)CC(=O)O[C@H]1C[C@H](O)C=C2C=C[C@H](C)[C@H](CC[C@@H]3C[C@@H](O)CC(=O)O3)[C@H]21,153 to 155 °C
6,CCC(=O)C1c2cccc(O)c2C(=O)c2c(O)cccc21,115 °C
7,Nc1cc(-c2ccccc2)cc2ccccc12,103 °C
8,CC(C)C1(c2ccccc2OCCCCBr)C(=O)N(C)c2ccccc21 (configuration not stated),98 to 100 °C
9,CC(C)(C(=O)O)c1ccc(OCc2ccccc2)cc1,128 to 130 °C
10,CNC(=O)c1ccc(-c2ccc(NC(=O)NCc3cccnc3)cc2)nc1Nc1ccccc1,234 to 236 °C
11,CCCn1nc(C)c2nc(C)nc(O)c21,196 to 198 °C
12,NC(=O)NC1(C(=O)O)CCCc2ncc(Cl)cc21 (configuration not stated),188 to 190 °C
13,CC(C)Oc1ccc(CN/C=C2\C(=O)NC(=O)c3ccc(Br)cc32)cc1O,212 to 213 °C
14,Cc1nc(N2CCN(C)CC2)nc(N)c1-c1cc(Cl)cc(Cl)c1,164 to 166 °C
15,COC(=O)c1ccc(C(O)c2cc3cc(C(F)(F)F)ccc3n2S(=O)(=O)c2ccc3c(c2)N(C)CCO3)cc1 (configuration not stated),80 °C
16,COCOc1cc(OC)ccc1C(=O)c1cccc(OCc2nc(-c3ccccc3)oc2C)c1,117 to 118 °C
17,CCCCCCCCOC(=O)c1[nH]c2cccc3c2c1CCNC3=O,170 to 171 °C
18,O=c1cc(C(F)(F)F)nc(Cl)n1-c1cc(Oc2ccccc2[N+](=O)[O-])c(Cl)cc1F,128 to 131 °C
19,N#Cc1ccc2c(c1)nc(/C=C/c1ccccc1)n2-c1ccccn1,172 to 173 °C
20,Oc1ccc(-c2ccc3c(-c4ccccc4)c(O)ccc3c2)cc1,142 to 146 °C
21,CC(=O)c1ccc(NC(=O)c2ccc(C=O)cc2)cc1,174 °C
22,Cn1nnc2c(N3CCOCC3)nc(-c3ccc(NC(=O)Nc4cccnc4)cc3)nc21,272 °C
23,CCCCN(CCCC)CCCOc1ccc(S(=O)(=O)c2ccccc2CC)cc1,80 °C
24,Cc1ccc(C(=O)c2ccc(F)cc2C)c(F)c1,29 to 31 °C
25,Cc1cc(Cc2cc(C(C)(C)C)cc(C(C)(C)C)c2O)c(O)c(-n2nc3ccccc3n2)c1,171 °C

row,Structure (SMILES),melting point
1,CCS(=O)(=O)N1CCN(C(=O)OC2CCC3(CO3)C(C3(C)OC3CC=C(C)C)C2OC)CC1 (configuration not stated),91 to 92 °C
2,COc1cc(N(C)C)ccc1-c1nc2c(N[C@H]3[C@@H](C(N)=O)[C@@H]4C=C[C@H]3C4)ccnc2[nH]1,185 to 190 °C
3,CCCCc1nc2ccn(CC#N)c(=O)c2n1Cc1ccc(-c2ccccc2C#N)cc1,64 °C
4,COCCOCCOCCOCCOc1ccc(N)cc1,42 to 44 °C
5,Cc1cc2nn(C)c(=O)n2nc1-c1cccc(N)c1,192 to 195 °C
6,CS(=O)(=O)C(=C1CN(C(c2ccccc2)c2ccccc2)C1)c1ccccc1,210 °C
7,CCn1c2c(c3ccccc3c1=O)C(=O)c1ccccc1-2,188 to 189 °C
8,O=C(Oc1cccc(Cl)c1)c1ncn2c1[C@@H]1CCCN1C(=O)c1c(Cl)cccc1-2,194 to 195 °C
9,CCOC(=O)c1c2ccc(CC(=O)NOCC(=O)N3CCOCC3)ccc-2c(C(=O)OCC)c1N,196 to 198 °C
10,CCCCCCN(C)c1ccc(C=C2SC(=S)N(CCNC(=O)C(F)(F)F)C2=O)cc1,136 to 139 °C
11,CCOC(=O)c1cn(-c2cc(NC(=O)OCc3ccccc3)c(F)cc2F)c2cc(F)c(F)c(C)c2c1=O,202 to 204 °C
12,O=C(c1ccccc1Cl)c1cc(Cl)ccc1C#CCN1C(=O)c2ccccc2C1=O,144 to 145 °C
13,CCOC(=O)c1cc(-c2ccc(OC)cc2)nn(C(C)C)c1=O,141 °C
14,CCCCCCCCCCCC1Cc2cc(C(=O)O)ccc2N1C (racemic),102 to 104 °C
15,COc1cc(OC)nc(NC(=O)NS(=O)(=O)c2c3c(Cl)cccc3nn2C)n1,171 to 172 °C
16,Cc1cnc2cc(NS(=O)(=O)c3cccc(Cl)c3C)ccc2n1,159 °C
17,O=C(Nc1noc2ccccc12)N1CCN(c2nc(N3CCCCC3)ns2)CC1,214 to 215 °C
18,COc1cc(OC)nc(-c2c(C)[nH]c3c(C)cccc23)n1,145 to 147 °C
19,O=c1[nH]c(=O)c2c(N3CCCCC3)cccc2[nH]1,> 280 °C
20,CC(C(=O)O)c1ccc2c(-c3ccc(F)cc3)noc2c1 (configuration not stated),151 to 154 °C
21,CN1C(=O)CC[C@]2(C)c3ccc(Sc4ccccc4)cc3CC[C@@H]12,109 to 112 °C
22,CCOC(=O)Cc1ccc(-c2nc(COc3ccc(COc4nn(-c5ccccc5)cc4/C=C\c4cncn4CC)cc3OC)c(C)o2)cc1,85 to 86 °C
23,OC1Cc2ccccc2Sc2cc(F)c(Cl)cc21 (configuration not stated),69 to 71 °C
24,CC[C@@H]1N(c2ccc(C#N)c(Cl)c2)C(=O)C[C@]1(C)O,144 to 146 °C
25,COc1ccc(C(=O)c2c(O)c3ccccc3[nH]c2=O)cc1OC,235 to 236 °C

row,Structure (SMILES),melting point
1,CCn1nnc2c(sc3nc(C)ccc32)c1=O,165 to 167 °C
2,CCOC(=O)C1=C(N)NC(C)=C(C(=O)OC)C1c1ccccc1C#N (configuration not stated),224 °C
3,Cc1c(C(=O)Nc2ccc(N3CCC(N(C)CCO)CC3)c(C#N)c2)cnn1-c1ccc(Cl)cc1,186 °C
4,CCCC(c1cc(C(=O)O)ccc1OCc1ccc(Br)cc1)n1ccnc1 (configuration not stated),187 to 189 °C
5,CC(C)(C)OC(=O)NC(COCc1ccccc1)c1nc2c(C(F)(F)F)cccc2c(=O)o1 (configuration not stated),98 °C
6,Cc1ccsc1C(Cc1ccccc1N)N(C)C=O (configuration not stated),111 to 112 °C
7,Cc1ccc(S(=O)(=O)NC(=O)NC2N=C(c3ccccc3)c3ccccc3N(C)C2=O)cc1 (configuration not stated),244 to 246 °C
8,CN(C)CCCOc1ccc(-c2nnc(CSCCOc3ccccc3)n2Cc2ccccc2)cc1,88 to 92 °C
9,CCn1nc2c(N)nc3ccccc3c2c1CC(C)C,208 to 209 °C
10,CSC(=NC(=O)OC(C)(C)C)NC(=O)OC(C)(C)C,123 to 124 °C
11,CC1(C)CCC(C)(C)c2cc([N+](=O)[O-])c(O)cc21,139 °C
12,CC(=O)Nc1cccc(NC(=O)Cc2ccc(-n3c(-c4cccnc4N)nc4ccc(-c5cccnc5)nc43)cc2)c1,142 to 144 °C
13,CS(=O)c1nnc2n1C=Cc1cc(Cl)ccc1C2 (configuration not stated),183 to 185 °C
14,O=C1CCC(C(=O)OC(C(=O)c2ccccc2)c2ccccc2)N1 (configuration not stated),123 to 131 °C
15,Cc1ccc(C(=O)n2c3c(c4ccccc42)CC(C(=O)O)CC3)cc1 (configuration not stated),210 to 212 °C
16,CCS(=O)(=O)Nc1cc(C(=O)Nc2ccccc2)ccc1OC,175 to 177 °C
17,CN1CCN(Nc2cc(Cl)ccc2[N+](=O)[O-])CC1,108 °C
18,COc1ccc2nc3c(cc2c1)c(C#N)nn3C,190 to 191 °C
19,CCNCC1CCN(c2c(F)cc3c(=O)c(C(=O)O)cn(C(C)C)c3c2F)C1 (configuration not stated),230 to 231 °C
20,Cc1ccc(-c2ccc(C(=O)Nc3ccc4nc(CN5C(C)(C)CCCC5(C)C)ccc4c3)cc2)cc1,242 to 243 °C
21,O=Cc1cc(O)ccc1-c1cccc(C(F)(F)F)c1,100 to 102 °C
22,CO[C@@H]1CN(c2ccc3c(=O)c(C(=O)O)cn(-c4nccs4)c3n2)C[C@H]1NCC(=O)OC(C)(C)C (relative stereo),185 to 188 °C
23,COc1ccc(CNc2ccccc2[N+](=O)[O-])cc1,75 to 78 °C
24,O=C(O)c1cccc(-c2cccc(OCCc3cccc(C(F)(F)F)c3)n2)c1,135 to 136 °C
25,O=C(NCCO)c1cccc(-c2ccc3c(c2)N(c2ccc(Cl)cc2Cl)CCCC3)c1,172 to 173 °C

row,Structure (SMILES),melting point
1,Cc1noc(-c2ccc(C(=O)O)s2)n1,226 to 228 °C
2,N#Cc1c(I)c(C(=O)Cl)c(I)c(C(=O)NCC(O)CO)c1I (configuration not stated),285 to 288 °C
3,CCCCCCCc1ccc2cc(-c3ncc(CC)cn3)ccc2c1,62.3 to 63.1 °C
4,Cc1cccc(C2(C#N)C3CC4CC(C3)CC2C4)c1 (configuration not stated),85 to 86 °C
5,CCc1cccc2c(/C=C/C(=O)N3CCCCC3)cc(OC)c(OCOC)c12,85 to 86 °C
6,COc1cc2c(cc1O)CC(C)N(Cc1cc(OC)c(OC)c(OC)c1)C2 (configuration not stated),127 to 132 °C
7,COc1cc(C(=O)c2nc(NC(C)=O)c3ccccn23)ccc1[N+](=O)[O-],256 °C
8,COC(=O)C1=Cc2cc(-c3ccc(C(F)(F)F)cc3)ccc2S(=O)(=O)CC1,168 to 170 °C
9,Cc1c(SCCN2CCCCC2)ccnc1CSc1nc2ccccc2[nH]1,138 to 140 °C
10,CSC1=Nc2ccc(Cl)cc2Cn2nnnc21,131 to 133 °C
11,CSc1ncc2cc(Oc3c(F)cccc3F)c(=O)n(C)c2n1,247 to 251 °C
12,COc1ccc(COc2c(C)c(C)c3c(c2C)C(c2ccc(N4CCN(C)CC4)cc2)C(C)(C)O3)cc1 (configuration not stated),121 to 122 °C
13,CC(C)C(=O)N[C@@H](CSC(=O)C(C)C)C(=O)NCCSC(=O)c1ccccc1,141 to 143 °C
14,O=c1[nH]nnn1-c1ccc(C(F)(F)F)cc1,191 to 192 °C
15,COc1cc(C(=O)NCC2c3ccccc3CCN2CCO)cc(OC)c1OC (configuration not stated),138 to 140 °C
16,O=C(O)COc1c2ccccc2c(-c2cc(Br)c(OC(Cc3ccccc3)C(=O)O)c(Br)c2)c2c1sc1ccccc12 (configuration not stated),110 to 120 °C
17,COC(=O)N(CCO)c1ccc(OCc2nc3ccccc3s2)cc1C,109 to 110 °C
18,COC(=O)C=Cc1ccc(OCCN(C)c2ccccn2)c(F)c1,110 to 111 °C
19,CN(C(=O)c1ccc(CS(=O)(=O)Cn2cnc3ccccc32)cc1)C1CCCCC1,142 to 143 °C
20,CCC1C(=O)N(c2ccccc2)C(=S)N1c1ccc(Oc2ccccc2)cc1 (configuration not stated),158 to 159 °C
21,COc1cc(NC(C)=O)c(Cl)cc1C(=O)NN1CCN(Cc2cccs2)CC1,178 to 181 °C
22,COC(=O)c1cc2c([nH]c3ccccc32)s1,200 to 201 °C
